# Key:
# cancer cells = assay: In vitro cytotoxicity on various cancer cells (MTT assay), summary; type: cell-based; conditions: as indicated in Table 1
# Experimental: (§1) The effect of a preparation containing xanthocillin X dimethylether on cancer cells was determined by an in vitro test. For a medium, the Modified Dulbecco Minimum Essential Medium combined with 10% fetal serum was placed in a culture dish. The cytotoxic activity was observed on various cancer cells (set forth in Table 1 below) that were serially cultured in this medium in a CO2 incubator. First, the respective cancer cells were suspended in the aforementioned culture medium at a concentration of 5×10^4 cells/ml. Then 135 μl of the suspension was added to a micro-titer plate having 96 wells. Next, 15 μl of the test compound solution was added, and the plates were incubated in CO2 for 3 days. The survival of the cells after the incubation period was determined by the MTT assay (Igaku no Ayumi, Vol. 128, pages 733-735, 1984).
# [1] = Acute toxicity in Balb/c mice; conditions: mouse, in vivo, ip, injected into the peritoneal cavity, 7-week-old females, survival over 2 weeks, suspension in 1% CMC
# Experimental: Xanthocillin X dimethylether (by way of the same suspension as used in Example 3) was injected into the peritoneal cavity of Balb/c mice (7-week-old females). The animals were reared for the next 2 weeks and their survival was recorded.
# Meth-A = assay: In vitro cytotoxicity, MTT assay, Meth-A; type: cell-based, murine; conditions: Mus musculus, 72 h, 3 days incubation, read-out: IC50 (drug concentration to kill 50% of the cells)
# Experimental: as §1
# B16 = assay: In vitro cytotoxicity, MTT assay, B16; type: cell-based; conditions: Mus musculus, 72 h, 3 days incubation, read-out: IC50 (drug concentration to kill 50% of the cells)
# Experimental: as §1
# prostaglandin synthesis = conditions: literature; cited from earlier work
# Meth-A solid tumor = assay: Suppression of growth of Meth-A solid tumor in Balb/c mice; type: in vivo
# Experimental: 0.1 ml of 10^7 cells/ml of murine fibrosarcoma Meth-A (ascites) were inoculated subcutaneously into Balb/c mice (6-week-old, females) and the test agent was injected intraperitoneally into the mice on the next day.
# The test compound had been thoroughly pulverized in a mortar, suspended in 1% carboxymethylcellulose (CMC), and mixed well using ultrasonic. The test compound was administered once daily for 4 consecutive days. Following 2 weeks of rearing, the tumor on the back was excised and its weight was recorded. The percentage by which tumor development was suppressed was computed as follows: {(tumor weight of the control-tumor weight of the test group)/tumor weight of the control group}×100.
# [2] = system: Lewis carcinoma of the lung; assay: In vitro cytotoxicity, MTT assay, Lewis carcinoma of the lung; type: cell-based; conditions: 72 h, 3 days incubation, read-out: IC50 (drug concentration to kill 50% of the cells)
# Experimental: as §1
# P388 = assay: In vitro cytotoxicity, MTT assay, P388; type: cell-based; conditions: Mus musculus, 72 h, 3 days incubation, read-out: IC50 (drug concentration to kill 50% of the cells)
# Experimental: as §1
structure (smiles),measurement,setting,value
[C-]#[N+]C(=Cc1ccc(OC)cc1)C(=Cc1ccc(OC)cc1)[N+]#[C-] [xanthocillin X dimethylether],cytotoxicity to a series of cancer cells (in words),cancer cells,cytotoxic to a series of cancer cells
same,LD50 at 336 h,[1],> 120 mg/kg
same,IC50,Meth-A,0.71 µg/mL
same,IC50,B16,0.45 µg/mL
same,inhibition of prostaglandin synthesis (in words),prostaglandin synthesis,specific inhibitor of prostaglandin synthesis
same,Percentage suppression of tumor growth,"Meth-A solid tumor; 30 mg/kg/day intraperitoneally, once daily for 4 consecutive days, after 2 weeks, computed from tumor weights versus control (1% CMC)",88.5 Percentage
same,Tumor weight,"Meth-A solid tumor; 30 mg/kg/day intraperitoneally, once daily for 4 consecutive days, tumor excised after 2 weeks, mean ± standard deviation, control 0.96 ± 0.60 g",0.11 ± 0.10 g
same,suppression of growth of Meth-A solid tumors (in words),Meth-A solid tumor; as shown in Table 2,markedly suppressed the growth of Meth-A solid tumors
same,IC50,[2],0.46 µg/mL
same,IC50,P388,0.67 µg/mL
